Measured values as given in patent publication US20240366629A1, “Porphyrin Complexes as Antidotes for Carbon Monoxide Exposure and Methods of Use for Same” (priority 2021, published 2024).

Legend:
[1] = Solubility in water and methanol
CO-treated RBCs = assay: Time-course CO removal from CO-treated RBCs (absorbance at 420 nm); type: cell-based, bovine; settings: quiescent suspension of CO-poisoned RBCs in buffered dithionite solution, 1 equiv of 6 (reduced in situ to 7)
Experimental: Time-Course CO Removal From CO-Treated RBCs Defibrinated bovine blood (Hemostat Laboratories) was diluted with PBS containing 5.7 mM sodium dithionite. CO was bubbled through this suspension for 5 s. This mixture was centrifuged for 30 s at 760×g. The supernatant was discarded, and the pellet was washed with PBS containing 5.7 mM sodium dithionite. This washing was repeated three more times to remove excess CO. An aliquot of the stock suspension of CO-treated RBCs was added to a quartz cuvette containing 1 mL of DI water to lyse the cells. The concentration of COHb was assessed by measuring the absorbance at 420 nm (ε=10^5.63) of this lysate. For time-course CO removal, an aliquot of the stock suspension of CO-treated RBCs was diluted to 1 mL with PBS containing 5.7 mM sodium dithionite. A full equivalent of compound 6 (which is reduced in situ to 7) was added, the suspension was rapidly mixed, and absorbance at 420 nm was monitored continuously (FIG. 12).

| Molecule | solubility in water and methanol [1] | time to essentially complete reaction (decrease of COHb absorbance at 420 nm) (CO-treated RBCs) |
| --- | --- | --- |
| 5,10,15,20-tetrakis(2,6-di(3,5-difluoro)phenyl-4-(trimethylsilyl) phenyl) porphyrin [Compound 2-2b] | completely insoluble |  |
| C[Si](C)(C)c1cc(-c2ccccc2)c(-c2c3nc(c(-c4c(-c5ccccc5)cc([Si](C)(C)C)cc4-c4ccccc4)c4ccc([nH]4)c(-c4c(-c5ccccc5)cc([Si](C)(C)C)cc4-c4ccccc4)c4nc(c(-c5c(-c6ccccc6)cc([Si](C)(C)C)cc5-c5ccccc5)c5ccc2[nH]5)C=C4)C=C3)c(-c2ccccc2)c1 [Compound 2-2a, 5,10,15,20-tetrakis(2,6-diphenyl-4-(trimethylsilyl)phenyl) porphyrin] | completely insoluble |  |
| O=S(=O)([O-])c1cc(-c2ccccc2)c(-c2c3nc(c(-c4c(-c5ccccc5)cc(S(=O)(=O)[O-])cc4-c4ccccc4)c4ccc([nH]4)c(-c4c(-c5ccccc5)cc(S(=O)(=O)[O-])cc4-c4ccccc4)c4nc(c(-c5c(-c6ccccc6)cc(S(=O)(=O)[O-])cc5-c5ccccc5)c5ccc2[nH]5)C=C4)C=C3)c(-c2ccccc2)c1.[Na+].[Na+].[Na+].[Na+] [Compound 2-3a, sodium 5,10,15,20-tetrakis(2,6-diphenyl-4-(sulfonato)phenyl)porphyrin] | readily dissolved |  |
| O=S(=O)([O-])c1cc(-c2cc(F)cc(F)c2)c(-c2c3nc(c(-c4c(-c5cc(F)cc(F)c5)cc(S(=O)(=O)[O-])cc4-c4cc(F)cc(F)c4)c4ccc([nH]4)c(-c4c(-c5cc(F)cc(F)c5)cc(S(=O)(=O)[O-])cc4-c4cc(F)cc(F)c4)c4nc(c(-c5c(-c6cc(F)cc(F)c6)cc(S(=O)(=O)[O-])cc5-c5cc(F)cc(F)c5)c5ccc2[nH]5)C=C4)C=C3)c(-c2cc(F)cc(F)c2)c1.[Na+].[Na+].[Na+].[Na+] [Compound 2-3b, sodium 5,10,15,20-tetrakis(2,6-di(3,5-difluoro)phenyl-4-(sulfonato)phenyl)porphyrin] | readily dissolved |  |
| Sodium 5,10,15,20-tetrakis(2,6-diphenyl-4-(sulfonate)phenyl)porphyrinatohydroxoiron(III) [Compound 6] |  | ≤ 3 min |
